# Results published in patent publication US20210213081A1, “COMPOSITION FOR PREVENTING, AMELIOREATING, OR TREATING STRESS OR DEPRESSION COMPRISING MEDICINAL HERB EXTRACT AS EFFECTIVE INGREDIENT” (KOREA INSTITUTE OF ORIENTAL MEDICINE, priority 2016, published 2021).
# Tests used:
# [1] = system: C57BL/6 mouse; test: Forced swimming test (FST) in immobility stress model; type: in vivo; settings: immobility stress 22 days, 20 mg/kg oral daily, FIG. 5
# Excerpt: (§1) As a test animal, 7-week old male C57BL/6 mouse was used after obtaining it from Samtako Bio Korea. The test animals were acclimated for 7 days in the test animal research center, which is a specific pathogen-free facility of Korea Institute of Oriental Medicine. They were divided into the followings 6 groups in total: normal group not exposed to any stress (Control, n=16), stress control group applied with the stress only (Vehicle, n=16), positive control group applied with the stress and commercially available anti-depressant (Fluoxetine, n=16), and test groups applied with the stress and extract of Hibiscus syriacus root (100, 200, or 400 mg/kg, n=16). […]
# To measure the anti-depression effect of an extract of Hibiscus syriacus root, the forced swimming test was carried out, after the completion of the immobility stress test, by using the method of Porsolt, et. al. ([…]). […] Of total 6 minutes, the measurement was not carried out for initial 2 minutes as an acclimation period, while the immobile time of the test animal was measured for the last 4 minutes. […]
# [2] = system: serotonin; test: Blood serotonin measurement after immobility stress (competitive enzyme immunoassay); type: in vivo; settings: mouse blood serum, immobility stress 22 days, 20 mg/kg oral daily, FIG. 8
# Excerpt: as §1
# Upon the completion of the test, the test animal was anesthetized, and blood was collected from the heart and centrifuged (1,000×g, 15 minutes) to obtain blood serum. […] After adding the stop solution (50 μl), the absorbance at 405 nm was measured by using Micro Spectrophotometer (Molecular Device, Sunnyvale, Calif., USA).
# [3] = system: C57BL/6 mouse; test: Tail suspension test (TST) in immobility stress model; type: in vivo; settings: immobility stress 22 days, 20 mg/kg oral daily, FIG. 6
# Excerpt: as §1
# The method by Can and others was used for the tail suspension test. […] Of total 6 minutes, the measurement was not carried out for initial 2 minutes as an acclimation period, while the immobile time of the test animal was measured for the last 4 minutes. […]
# [4] = system: C57BL/6 mouse; test: Sucrose preference test (SPT) in immobility stress model; type: in vivo; settings: immobility stress 22 days, 20 mg/kg oral daily, FIG. 4
# Excerpt: as §1, with “n=16). The test methods were reviewed by Test animal ethics committee of Korea Institute of Oriental Medicine (approval number: 15-102), and as for the breeding and maintenance of the test animals, the animals were placed in an IVC (individually ventilated cage) (5 animals per cage), which has been constantly maintained at temperature of 23±1° C., humidity of 50±10% or so, and light/dark period of 12 hours, based on the regulations for management and use of animals by the Test Animal Research Center of Korea Institute of Oriental Medicine.” for “n=16).”
# The sucrose preference test was carried out on Day 1 of the test and after completion of the test. […] The intake preference was calculated as follows.
# [5] = system: cortisol; test: Blood cortisol measurement after immobility stress (competitive enzyme immunoassay); type: in vivo; settings: mouse blood serum, immobility stress 22 days, 20 mg/kg oral daily, FIG. 7
# Excerpt: as §1
# Upon the completion of the test, the test animal was anesthetized, and blood was collected from the heart and centrifuged (1,000×g, 15 minutes) to obtain blood serum. […] Then, the absorbance at 405 nm was measured by using Micro Spectrophotometer (Molecular Device, Sunnyvale, Calif., USA).
# [6] = system: SK-N-SH cells; test: Activity of protecting nerve cells against corticosterone toxicity, MTS assay (cell proliferation); type: cell-based, human; settings: 0.25 mM corticosterone for 1 hour, versus normal group
# Protocol: SK-N-SH cells as human neuroblastoma cell line were obtained from Korean Cell Line Bank, cultured in DMEM (Dulbecco's modified Eagle's medium) medium containing 10% bovine serum and 1% penicillin/streptomycin (37° C., 5% CO2 incubator), and used. Once a cell monolayer is formed, the cells were treated with TrypLE 1× solution to release the cells followed by subculture.
# Furthermore, based on the toxicity of corticosterone, the activity of protecting nerve cells in human blastoma was examined. Specifically, on a Corning BioCoat collagen I 96-well plate, SK-N-SH cells were sewn at 3×10^4/well. Thereafter, the cells were pre-treated for 24 hours with an extract of Hibiscus syriacus flower or Hibiscus syriacus root at a concentration of 10, 50, 100, or 200 μg/ml followed by a treatment with 0.25 mM corticosterone for 1 hour to induce oxidative stress. Then, MTS assay was carried out and, by measuring the absorbance using ELISA (enzyme-linked immunosorbent assay) plate reader, the cell proliferation was determined.
# As a positive control, a treatment with 10 μM fluoxetine (Sigma, St. Louis, Mo., USA) was carried out instead of the treatment with an extract of Hibiscus syriacus flower or Hibiscus syriacus root.
Structure (SMILES),immobile time in forced swimming test compared to control group (Vehicle) [1],serotonin production in blood compared to control group (Vehicle) [2],immobile time in tail suspension test compared to control group (Vehicle) [3],sucrose intake amount compared to stress control group (Vehicle) [4],cortisol production in blood compared to control group (Vehicle) [5],cells diminished by treatment with corticosterone [6]
"CNCCC(Oc1ccc(C(F)(F)F)cc1)c1ccccc1 (stereo not drawn) [Fluoxetine, fluoxetine]",decreased in significant sense,increased in significant sense,decreased,increased in significant sense,decreased in significant sense,
C[C@]12C[C@H](O)[C@H]3[C@@H](CCC4=CC(=O)CC[C@@]43C)[C@@H]1CC[C@@H]2C(=O)CO [corticosterone],,,,,,~50%
